Data reported in PubChem BioAssay AID248 (DTP/NCI, 2004).
“And” between values parts separate entries of the source, which are not always exact repeats. Identical values can stand only once. Toxic doses and inconclusive results are not listed.

Test system: L1210 leukemia ip in BDF1 mice, survival T/C
Assay: NCI In Vivo Anticancer Drug Screen. Data for tumor model L1210 Leukemia (intraperitoneal) in B6D2F1 (BDF1) mice
Details: endpoint: mean survival time, higher = longer survival
Procedure, shortened: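 Tumor was transplanted into mice, which were then dosed with test compound or vehicle alone. Survival was recorded for each group, and the treated figure was expressed relative to the control figure.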

[1] = dose: 100.0 mg/kg/injection, schedule: Q01DX001 (ip), vehicle: carboxymethylcellulose (CMC)
[2] = dose: 200.0 mg/kg/injection, schedule: Q01DX001 (ip), vehicle: carboxymethylcellulose (CMC)
[3] = dose: 400.0 mg/kg/injection, schedule: Q01DX001 (ip), vehicle: carboxymethylcellulose (CMC)
[4] = dose: 100.0 mg/kg/injection, schedule: Q01DX009 (ip), vehicle: saline with Tween-80
[5] = dose: 200.0 mg/kg/injection, schedule: Q01DX009 (ip), vehicle: saline with Tween-80
[6] = dose: 100.0 mg/kg/injection, schedule: Q04DX003 (ip), vehicle: saline with Tween-80
[7] = dose: 200.0 mg/kg/injection, schedule: Q04DX003 (ip), vehicle: saline with Tween-80
[8] = dose: 400.0 mg/kg/injection, schedule: Q04DX003 (ip), vehicle: saline with Tween-80
[9] = dose: 100.0 mg/kg/injection, schedule: Q04DX002 (ip), vehicle: saline with Tween-80
[10] = dose: 200.0 mg/kg/injection, schedule: Q04DX002 (ip), vehicle: saline with Tween-80
[11] = dose: 400.0 mg/kg/injection, schedule: Q04DX002 (ip), vehicle: saline with Tween-80

`Cc1ccc(NC(=O)NCC(=O)O)cc1` was tested, and the T/C [1] was 101 % of control, the T/C [2] was 97 % of control and the T/C [3] was 109 % of control.

In the case of `O=c1[nH]c(-c2ccc(O)cc2)nc2[nH]ncc12`, the T/C (dose: 100.0 mg/kg/injection, schedule: Q04DX003 (ip), vehicle: Klucel (hydroxypropylcellulose) (HPC)) was 88 % of control and the T/C (dose: 200.0 mg/kg/injection, schedule: Q04DX003 (ip), vehicle: Klucel (hydroxypropylcellulose) (HPC)) was 86 % of control.

With `O=C(Nc1ccccc1C(F)(F)F)OCCSc1ccc(Cl)cc1` the T/C [4] was 95 % of control, the T/C [5] was 95 % of control and the T/C (dose: 400.0 mg/kg/injection, schedule: Q01DX009 (ip), vehicle: saline with Tween-80) was 93 % of control.

`CCCCCCCCCCCCCCCC[n+]1cccc(C(=O)NCO)c1` was tested, and the T/C [1] was 93 % of control and the T/C [2] was 102 % of control.

In the case of `Oc1cccc[c]1[Hg][Cl]`, the T/C (dose: 1.0 mg/kg/injection, schedule: Q01DX009 (ip), vehicle: Klucel (hydroxypropylcellulose) (HPC)) was 98 % of control, the T/C (dose: 1.0 mg/kg/injection, schedule: Q04DX003 (ip), vehicle: saline) was 98 % of control and the T/C (dose: 3.0 mg/kg/injection, schedule: Q01DX009 (ip), vehicle: Klucel (hydroxypropylcellulose) (HPC)) was 89 % of control. For the same compound, the T/C (dose: 3.0 mg/kg/injection, schedule: Q04DX003 (ip), vehicle: saline) was 94 % of control and the T/C (dose: 6.0 mg/kg/injection, schedule: Q01DX009 (ip), vehicle: Klucel (hydroxypropylcellulose) (HPC)) was 94 % of control and 91 % of control.

In the case of `CC1(C)N=C(N)N=C(N)N1c1ccc(OCC(=O)Nc2ccc(S(=O)(=O)F)cc2)cc1`, the T/C (dose: 0.8 mg/kg/injection, schedule: Q01DX009 (ip), vehicle: saline) was 101 % of control, the T/C (dose: 4.0 mg/kg/injection, schedule: Q01DX009 (ip), vehicle: saline) was 103 % of control and the T/C (dose: 20.0 mg/kg/injection, schedule: Q01DX009 (ip), vehicle: saline) was 112 % of control.

In the case of `COc1ccccc1NS(=O)(=O)c1ccccc1`, the T/C [1] was 92 % of control, the T/C [2] was 103 % of control and the T/C [3] was 103 % of control.

With `CCCCCCOC(=O)c1cccc2c1-c1ccccc1C2=O` the T/C [1] was 93 % of control, the T/C [2] was 93 % of control and the T/C [3] was 98 % of control.

In the case of `COc1ccc(OC(C)=O)c(C=O)c1`, the T/C [1] was 100 % of control and the T/C [2] was 103 % of control.

With `O=C(Nc1ccccc1C1=NCCN1)c1ccc(C(=O)Nc2ccccc2C2=NCCN2)cc1` the T/C (dose: 15.0 mg/kg/injection, schedule: Q01DX Z (ip), vehicle: methylcellulose (MC)) was 88 % of control, the T/C (dose: 30.0 mg/kg/injection, schedule: Q01DX Z (ip), vehicle: methylcellulose (MC)) was 95 % of control and the T/C (dose: 62.0 mg/kg/injection, schedule: Q01DX Z (ip), vehicle: carboxymethylcellulose (CMC)) was 92 % of control. The T/C (dose: 125.0 mg/kg/injection, schedule: Q01DX Z (ip), vehicle: carboxymethylcellulose (CMC)) was 94 % of control and the T/C (dose: 250.0 mg/kg/injection, schedule: Q01DX Z (ip), vehicle: carboxymethylcellulose (CMC)) was 88 % of control.

In the case of `CCC(=O)c1ccc2c(c1)N(C(C)CN(C)C)c1ccccc1S2` (centres undefined), the T/C (dose: 1.56 mg/kg/injection, schedule: Q03HX024 (ip), vehicle: saline) was 100 % of control, the T/C (dose: 3.12 mg/kg/injection, schedule: Q03HX024 (ip), vehicle: saline) was 102 % of control and the T/C (dose: 6.25 mg/kg/injection, schedule: Q01DX009 (ip), vehicle: saline) was 100 % of control and 106 % of control. The T/C (dose: 6.25 mg/kg/injection, schedule: Q03HX024 (ip), vehicle: saline) was 100 % of control, the T/C (dose: 6.25 mg/kg/injection, schedule: Q04DX003 (ip), vehicle: saline) was 101 % of control and the T/C (dose: 12.5 mg/kg/injection, schedule: Q01DX009 (ip), vehicle: saline) was 104 % of control and 109 % of control and 110 % of control. For the same compound, the T/C (dose: 12.5 mg/kg/injection, schedule: Q03HX024 (ip), vehicle: saline) was 100 % of control, the T/C (dose: 12.5 mg/kg/injection, schedule: Q04DX003 (ip), vehicle: saline) was 103 % of control and the T/C (dose: 18.75 mg/kg/injection, schedule: Q01DX001 (ip), vehicle: saline) was 107 % of control. For the same compound, the T/C (dose: 25.0 mg/kg/injection, schedule: Q01DX009 (ip), vehicle: saline) was 106 % of control and 110 % of control and 116 % of control, the T/C (dose: 25.0 mg/kg/injection, schedule: Q04DX003 (ip), vehicle: saline) was 103 % of control and 104 % of control and the T/C (dose: 37.5 mg/kg/injection, schedule: Q01DX001 (ip), vehicle: saline) was 115 % of control. The T/C (dose: 50.0 mg/kg/injection, schedule: Q01DX009 (ip), vehicle: saline) was 109 % of control and 118 % of control, the T/C (dose: 50.0 mg/kg/injection, schedule: Q04DX003 (ip), vehicle: saline) was 109 % of control and 120 % of control and the T/C (dose: 75.0 mg/kg/injection, schedule: Q01DX001 (ip), vehicle: saline) was 109 % of control. The T/C (dose: 100.0 mg/kg/injection, schedule: Q01DX009 (ip), vehicle: saline) was 90 % of control and the T/C (dose: 150.0 mg/kg/injection, schedule: Q01DX001 (ip), vehicle: saline) was 96 % of control.

With `O=C(Nc1ccc(C2=NCCN2)cc1)c1cccc(C(=O)Nc2ccc(C3=NCCN3)cc2)c1[N+](=O)[O-]` the T/C (dose: 1.88 mg/kg/injection, schedule: Q01DX Z (ip), vehicle: saline) was 100 % of control, the T/C (dose: 3.75 mg/kg/injection, schedule: Q01DX Z (ip), vehicle: saline) was 100 % of control and the T/C (dose: 7.5 mg/kg/injection, schedule: Q01DX Z (ip), vehicle: saline) was 100 % of control. The T/C (dose: 15.0 mg/kg/injection, schedule: Q01DX Z (ip), vehicle: saline) was 105 % of control, the T/C (dose: 30.0 mg/kg/injection, schedule: Q01DX Z (ip), vehicle: carboxymethylcellulose (CMC)) was 198 % of control and the T/C (dose: 30.0 mg/kg/injection, schedule: Q01DX Z (oral), vehicle: saline) was 103 % of control. For the same compound, the T/C (dose: 60.0 mg/kg/injection, schedule: Q01DX Z (ip), vehicle: carboxymethylcellulose (CMC)) was 117 % of control, the T/C (dose: 60.0 mg/kg/injection, schedule: Q01DX Z (oral), vehicle: saline) was 105 % of control and the T/C (dose: 120.0 mg/kg/injection, schedule: Q01DX Z (oral), vehicle: saline) was 107 % of control. The T/C (dose: 240.0 mg/kg/injection, schedule: Q01DX Z (oral), vehicle: saline) was 102 % of control.

With `Cc1cc(C)c(/C=N/O)c(C)c1` the T/C (dose: 50.0 mg/kg/injection, schedule: Q01DX009 (ip), vehicle: acetone) was 93 % of control, the T/C (dose: 100.0 mg/kg/injection, schedule: Q01DX009 (ip), vehicle: acetone) was 87 % of control and the T/C (dose: 100.0 mg/kg/injection, schedule: Q04DX003 (ip), vehicle: saline) was 102 % of control. For the same compound, the T/C (dose: 200.0 mg/kg/injection, schedule: Q04DX003 (ip), vehicle: saline) was 97 % of control and the T/C (dose: 400.0 mg/kg/injection, schedule: Q04DX003 (ip), vehicle: saline) was 100 % of control.

In the case of `O=C(Nc1ccccc1C(F)(F)F)Oc1ccc(Cl)cc1Cl`, the T/C [4] was 103 % of control, the T/C [6] was 94 % of control and the T/C [5] was 99 % of control. The T/C [7] was 102 % of control and the T/C [8] was 86 % of control.

With `CCOC(=O)C1C(O)=C(C(=O)Nc2ccccc2)C(=O)C(C(=O)O)C1C1CC=CCC1` (centres undefined) the T/C (dose: 100.0 mg/kg/injection, schedule: Q01DX001 (ip), vehicle: other) was 97 % of control, the T/C [6] was 94 % of control and the T/C (dose: 200.0 mg/kg/injection, schedule: Q01DX001 (ip), vehicle: other) was 100 % of control. The T/C [7] was 103 % of control and the T/C [8] was 100 % of control.

For `CC(NC(=O)C(C)(C)C)c1ccc2c(c1)OCCO2` (centres undefined), the T/C [9] was 106 % of control, the T/C [10] was 95 % of control and the T/C [11] was 95 % of control.

`O=S(=O)(CCCl)CCc1ccccc1` was tested, and the T/C [9] was 96 % of control, the T/C [10] was 89 % of control and the T/C [11] was 93 % of control.

In the case of `O=S(=O)(NC(CCl)=NCc1ccccc1)c1ccccc1`, the T/C (dose: 100.0 mg/kg/injection, schedule: Q04DX002 (ip), vehicle: Klucel (hydroxypropylcellulose) (HPC)) was 96 % of control, the T/C (dose: 200.0 mg/kg/injection, schedule: Q04DX002 (ip), vehicle: Klucel (hydroxypropylcellulose) (HPC)) was 100 % of control and the T/C (dose: 400.0 mg/kg/injection, schedule: Q04DX002 (ip), vehicle: Klucel (hydroxypropylcellulose) (HPC)) was 86 % of control.

With `O=c1c2ccccc2ncn1CCCBr` the T/C (dose: 75.0 mg/kg/injection, schedule: Q01DX009 (ip), vehicle: saline) was 95 % of control, the T/C (dose: 150.0 mg/kg/injection, schedule: Q01DX009 (ip), vehicle: saline) was 103 % of control and the T/C (dose: 300.0 mg/kg/injection, schedule: Q01DX009 (ip), vehicle: saline) was 95 % of control.

For `[B-][NH2+]CC[NH2+][B-]`, the T/C (dose: 400.0 mg/kg/injection, schedule: Q01DX001 (ip), vehicle: saline) was 117 % of control.

`CCN(CC)S(=O)(=O)c1cccc(C(=O)CC(O)(C(F)(F)F)C(F)(F)F)c1` was tested, and the T/C [6] was 94 % of control, the T/C [7] was 102 % of control and the T/C [8] was 108 % of control.
